Holding throughout (assay): relative viability (nuclei count vs DMSO), 5 days (fraction); higher = more cells survive
Compound in the assay “Apatinib + Foretinib”: N#CC1(c2ccc(NC(=O)c3cccnc3NCc3ccncc3)cc2)CCCC1 [Apatinib] + COc1cc2c(Oc3ccc(NC(=O)C4(C(=O)Nc5ccc(F)cc5)CC4)cc3F)ccnc2cc1OCCCN1CCOCC1 [Foretinib] (partner 0.25 µM)
Summed up: (§1)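 The day after seeding in 1536-well plates, lung cancer cell lines were treated by pin tool with a single drug, or with a fixed anchor-drug dose together with five library-drug doses (not always all listed) in √10 steps. After 5 days, a combined fix-and-stain solution (final 0.05% Triton X-100, 1% formaldehyde, 1 ug/ml Hoechst) was added. Nuclei counted on 4× images gave relative viability as treated counts over vehicle counts, reported as the median of duplicate plates.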

Compound in the assay “Metformin + AZD7762”: CN(C)C(=N)NC(=N)N [Metformin] + NC(=O)Nc1cc(-c2cccc(F)c2)sc1C(=O)N[C@H]1CCCNC1 [AZD7762] (partner 0.2 µM)
In outline:
as §1

Compound in the assay “Metformin + Olaparib”: CN(C)C(=N)NC(=N)N [Metformin] + O=C(c1cc(Cc2n[nH]c(=O)c3ccccc23)ccc1F)N1CCN(C(=O)C2CC2)CC1 [Olaparib] (partner 8 µM)
In outline: as §1

Compound in the assay “Apatinib + Crizotinib”: N#CC1(c2ccc(NC(=O)c3cccnc3NCc3ccncc3)cc2)CCCC1 [Apatinib] + C[C@@H](Oc1cc(-c2cnn(C3CCNCC3)c2)cnc1N)c1c(Cl)ccc(F)c1Cl [Crizotinib] (partner 1 µM)
In outline: as §1

The source of these data is the supplement of paper PMC10307832.

NCI-H2126: the relative viability with Apatinib + Foretinib (first compound 0.08 µM) amounted to 1.28; in the assay with Apatinib + Foretinib (first compound 0.253 µM), 1.12; with Apatinib + Foretinib (first compound 0.8 µM), 1.23; with Apatinib + Foretinib (first compound 2.53 µM), 0.954; in the assay with Apatinib + Foretinib (first compound 8 µM), 0.987; with Metformin + AZD7762 (first compound 10 µM) it was 0.953. In addition, the relative viability is 0.963 in the assay with Metformin + AZD7762 (first compound 31.62 µM); 0.916 in the assay with Metformin + AZD7762 (first compound 100 µM); 0.92 with Metformin + AZD7762 (first compound 316.23 µM); 0.935 with Metformin + AZD7762 (first compound 1000 µM); 0.767 in the assay with Metformin + Olaparib (first compound 10 µM); 0.88 in the assay with Metformin + Olaparib (first compound 31.62 µM). Moreover, the relative viability with Metformin + Olaparib (first compound 100 µM) turned out to be 0.911; with Metformin + Olaparib (first compound 316.23 µM), 0.833; with Metformin + Olaparib (first compound 1000 µM), 0.856; in the assay with Apatinib + Crizotinib (first compound 0.08 µM) it was 1.03; in the assay with Apatinib + Crizotinib (first compound 0.253 µM), 0.945; in the assay with Apatinib + Crizotinib (first compound 0.8 µM) it was 1.07. Moreover, the relative viability amounted to 0.957 with Apatinib + Crizotinib (first compound 2.53 µM) and 0.894 with Apatinib + Crizotinib (first compound 8 µM).
Turning to NCI-H1437, the relative viability with Apatinib + Foretinib (first compound 0.08 µM) stood at 1.28; with Apatinib + Foretinib (first compound 0.253 µM), 1.26; in the assay with Apatinib + Foretinib (first compound 0.8 µM), 1.24; in the assay with Apatinib + Foretinib (first compound 2.53 µM) it was 1.03; with Apatinib + Foretinib (first compound 8 µM) it was 1.02; in the assay with Metformin + AZD7762 (first compound 10 µM), 1.17. Also, the relative viability turned out to be 1.1 with Metformin + AZD7762 (first compound 31.62 µM); 1.07 in the assay with Metformin + AZD7762 (first compound 100 µM); 1.09 in the assay with Metformin + AZD7762 (first compound 316.23 µM); 0.551 in the assay with Metformin + AZD7762 (first compound 1000 µM); 0.579 with Metformin + Olaparib (first compound 10 µM); 0.59 in the assay with Metformin + Olaparib (first compound 31.62 µM). The relative viability worked out at 0.593 with Metformin + Olaparib (first compound 100 µM); 0.595 in the assay with Metformin + Olaparib (first compound 316.23 µM); 0.576 with Metformin + Olaparib (first compound 1000 µM); 1.01 in the assay with Apatinib + Crizotinib (first compound 0.08 µM); 1 in the assay with Apatinib + Crizotinib (first compound 0.253 µM); 0.92 in the assay with Apatinib + Crizotinib (first compound 0.8 µM). Further, the relative viability with Apatinib + Crizotinib (first compound 2.53 µM) is 0.726; in the assay with Apatinib + Crizotinib (first compound 8 µM), 0.632.
As for LXF-289, the relative viability was 0.915 with Apatinib + Foretinib (first compound 0.08 µM); 1.02 with Apatinib + Foretinib (first compound 0.253 µM); 0.984 with Apatinib + Foretinib (first compound 0.8 µM); 0.954 with Apatinib + Foretinib (first compound 2.53 µM); 0.905 in the assay with Apatinib + Foretinib (first compound 8 µM); 1.05 with Metformin + AZD7762 (first compound 10 µM). In addition, the relative viability amounted to 1.02 with Metformin + AZD7762 (first compound 31.62 µM); 1.01 in the assay with Metformin + AZD7762 (first compound 100 µM); 1.05 with Metformin + AZD7762 (first compound 316.23 µM); 1.07 with Metformin + AZD7762 (first compound 1000 µM); 0.929 with Metformin + Olaparib (first compound 10 µM); 0.922 with Metformin + Olaparib (first compound 31.62 µM). The relative viability in the assay with Metformin + Olaparib (first compound 100 µM) is 0.829; with Metformin + Olaparib (first compound 316.23 µM), 0.917; with Metformin + Olaparib (first compound 1000 µM), 0.93; in the assay with Apatinib + Crizotinib (first compound 0.08 µM) it was 0.797; with Apatinib + Crizotinib (first compound 0.253 µM) it was 0.817; in the assay with Apatinib + Crizotinib (first compound 0.8 µM), 0.778. In addition, the relative viability with Apatinib + Crizotinib (first compound 2.53 µM) was 0.749; in the assay with Apatinib + Crizotinib (first compound 8 µM), 0.742.
Take LK-2: the relative viability with Apatinib + Foretinib (first compound 0.08 µM) is 1.37; in the assay with Apatinib + Foretinib (first compound 0.253 µM), 1.13; with Apatinib + Foretinib (first compound 0.8 µM), 1.13; in the assay with Apatinib + Foretinib (first compound 2.53 µM), 1.1; with Apatinib + Foretinib (first compound 8 µM), 0.645; with Metformin + AZD7762 (first compound 10 µM) it was 0.359. The relative viability with Metformin + AZD7762 (first compound 31.62 µM) was determined as 0.454; in the assay with Metformin + AZD7762 (first compound 100 µM), 0.512; in the assay with Metformin + AZD7762 (first compound 316.23 µM) it was 0.361; with Metformin + AZD7762 (first compound 1000 µM), 0.548; with Metformin + Olaparib (first compound 10 µM) it was 0.79; with Metformin + Olaparib (first compound 31.62 µM), 0.509. Further, the relative viability turned out to be 0.644 in the assay with Metformin + Olaparib (first compound 100 µM); 0.734 with Metformin + Olaparib (first compound 316.23 µM); 0.873 in the assay with Metformin + Olaparib (first compound 1000 µM); 0.243 with Apatinib + Crizotinib (first compound 0.08 µM); 0.218 with Apatinib + Crizotinib (first compound 0.253 µM); 0.212 in the assay with Apatinib + Crizotinib (first compound 0.8 µM). Besides, the relative viability with Apatinib + Crizotinib (first compound 2.53 µM) turned out to be 0.237; with Apatinib + Crizotinib (first compound 8 µM) it was 0.242.
